Results from article PMC9064041 (Journal of medicinal chemistry, 2020).
≈ marks a conversion by molar mass, not a printed value. Where “and” joins values, the source holds several entries; their conditions need not be identical. Equal entries are not always repeated.

Key:
[1] = system: C. difficile ATCC BAA 1801; assay: MIC, broth microdilution, initial screening; assay type: cell-based, Clostridioides difficile; conditions: for MIC: Clostridioides difficile, BAA1801, 48 h
[2] = system: C. difficile NR-32891 (P13); assay: MIC, broth microdilution, clinical isolate; assay type: cell-based; conditions: Clostridioides difficile
[3] = system: C. difficile NR-32904 (P30); assay: MIC, broth microdilution, clinical isolate; assay type: cell-based; conditions: Clostridioides difficile
C. difficile ATCC 43255 [4] = assay: MIC, broth microdilution, clinical isolate; assay type: cell-based; conditions: Clostridioides difficile, ATCC43255
[5] = system: Lactobacillus gasseri HM-400; assay: MIC against normal gut microbiota; assay type: cell-based; conditions: HM400
[6] = system: Lactobacillus crispatus HM-103; assay: MIC against normal gut microbiota; assay type: cell-based; conditions: HM103
[7] = system: Lactobacillus crispatus HM-371; assay: MIC against normal gut microbiota; assay type: cell-based; conditions: HM371
[8] = system: Bacteroides fragilis HM-711; assay: MIC against normal gut microbiota; assay type: cell-based; conditions: HM711
[9] = system: Bacteroides fragilis HM-709; assay: MIC against normal gut microbiota; assay type: cell-based; conditions: HM709
[10] = system: E. coli JW55031 (TolC Mutant); assay: MIC, broth microdilution; assay type: cell-based; conditions: Escherichia coli
[11] = system: E. coli BW25113 (wild-type strain); assay: MIC, broth microdilution; assay type: cell-based, Escherichia coli; conditions: for MIC: Escherichia coli, BW25113
[12] = system: C. difficile NR-13432 (isolate 6); assay: MIC, broth microdilution, clinical isolate; assay type: cell-based; conditions: Clostridioides difficile
[13] = system: C. difficile NR-13435 (isolate 9); assay: MIC, broth microdilution, clinical isolate; assay type: cell-based; conditions: Clostridioides difficile
E. faecium ATCC 700221 = assay: MIC, broth microdilution; assay type: cell-based; conditions: Enterococcus faecium, ATCC700221
E. faecalis ATCC 51299 = assay: MIC, broth microdilution; assay type: cell-based; conditions: Enterococcus faecalis, ATCC51299
VRE clinical isolates = assay: MIC range over VRE clinical isolates; assay type: cell-based, vancomycin-resistant enterococci; conditions: Enterococcus, read-out: MICs ranging over VRE clinical isolates
Lactobacillus strains = assay: MIC over Lactobacillus strains; assay type: cell-based, Lactobacillus spp; conditions: read-out: MIC against Lactobacillus strains
Bacteroides spp = assay: MIC over Bacteroides species; assay type: cell-based; conditions: read-out: MIC against species of Bacteroides
[14] = system: human colorectal cells (Caco-2); assay: In vitro cytotoxicity, MTS assay; assay type: cell-based; conditions: 2 hours incubation with compound
Caco-2 bilayers = assay: Caco-2 bidirectional permeability assay; assay type: in vitro ADME, human
C. difficile ATCC 43255 [15] = assay: Frequency of spontaneous mutation; conditions: for isolation of resistant mutants: high inoculum
[16] = system: C. difficile NR-32883 (P2); assay: MIC, broth microdilution, clinical isolate; assay type: cell-based; conditions: Clostridioides difficile
[17] = system: C. difficile NR-32895 (P19); assay: MIC, broth microdilution, clinical isolate; assay type: cell-based; conditions: Clostridioides difficile
[18] = system: C. difficile infection (CDI); conditions: cited from earlier work
[19] = cited from earlier work
[20] = 15 × MIC, inoculum ~10^9 CFU/mL
[21] = 20 × MIC, inoculum ~10^9 CFU/mL
[22] = C. difficile ATCC BAA 1801, anaerobic, 48 hours

MIC [1, 22] | Structure (SMILES) | MIC (C. difficile ATCC 43255 [4]) | MIC [5] | MIC [6] | MIC [7] | MIC [8] | MIC [9] | MIC [10] | MIC [11] | MIC (E. faecium ATCC 700221) | MIC (E. faecalis ATCC 51299) | further results
 | Cc1ccc(-c2nnc(NC(=O)c3ccc(SC(F)(F)F)cc3)o2)cc1 [Compound 12, N-(5-(4-Methylphenyl)-1,3,4-oxadiazol-2-yl)-4-((trifluoromethyl)thio)benzamide] |  |  |  |  |  |  |  |  |  |  | activity against C. difficile ATCC BAA 1801 in words [1]: only moderate to no actvity
 | CCc1c(Cl)c(O)c(Cl)c(O)c1C(=O)O[C@H]1[C@H](O)[C@H](OC)[C@H](OC/C2=C\C=C\C[C@H](O)/C(C)=C/[C@H](CC)[C@@H](O[C@@H]3OC(C)(C)[C@@H](OC(=O)C(C)C)[C@H](O)[C@@H]3O)/C(C)=C/C(C)=C/C[C@@H]([C@@H](C)O)OC2=O)O[C@@H]1C [Fidaxomicin] | 0.015 µg/mL (≈ 0.0142 µM) | > 64 µg/mL | > 64 µg/mL and > 60.5 µM | > 64 µg/mL | > 64 µg/mL and > 60.5 µM | > 64 µg/mL |  |  |  |  | MIC [2]: 0.015 µg/mL (≈ 0.0142 µM); MIC [3]: 0.015 µg/mL (≈ 0.0142 µM)
 | CNC(C)C1CCC(N)C(OC2C(N)CC(N)C(OC3OCC(C)(O)C(NC)C3O)C2O)O1 (stereo not shown) [Gentamicin] |  |  |  |  |  |  | 0.25 µg/mL and 0.52 µM | 0.25 µg/mL and 0.52 µM |  |  | 
 | O=C(Nc1nnc(-c2cc(Cl)cc(Cl)c2)o1)c1ccc(SC(F)(F)F)cc1 [HSGN-218, N-(5-(3,5-Dichlorophenyl)-1,3,4-oxadiazol-2-yl)-4-((trifluoromethyl)thio)benzamide] | 0.015 µg/mL (≈ 0.0345 µM) | 16 µg/mL (≈ 36.8 µM) | 16 µg/mL (≈ 36.8 µM) | 16 µg/mL (≈ 36.8 µM) | 2 µg/mL (≈ 4.61 µM) | 1 µg/mL (≈ 2.3 µM) | 4 µg/mL (≈ 9.21 µM) | > 16 µg/mL | 0.125 µg/mL (≈ 0.288 µM) | 0.06 µg/mL (≈ 0.138 µM) | MIC [12]: 0.03 µg/mL (≈ 0.0691 µM); MIC [13]: 0.003 µg/mL (≈ 0.00691 µM); activity against E. coli BW25113 in words ([11]; wild-type strain): inactive; MIC (VRE clinical isolates): 0.06 µg/mL to 0.125 µg/mL and 0.14 µM to 0.29 µM; MIC (Lactobacillus strains): 16 µg/mL (≈ 36.8 µM); MIC (Bacteroides spp): 1 µg/mL to 2 µg/mL and 2.3 µM to 4.6 µM; concentration highly tolerable to Caco-2 cells [14]: higher than 64 μg/mL; Notes (permeability class) (Caco-2 bilayers): Low Permeability; isolation of resistant mutants (C. difficile ATCC 43255 [15]; 15 × MIC and 20 × MIC): No resistant mutants were isolated; Frequency of mutation (C. difficile ATCC 43255 [15]; [20]): <1.1× 10^−9; Frequency of mutation (C. difficile ATCC 43255 [15]; [21]): <1.1× 10^−9
 | CC(=O)NC[C@H]1CN(c2ccc(N3CCOCC3)c(F)c2)C(=O)O1 [Linezolid] |  |  |  |  |  |  | 16 µg/mL (≈ 47.4 µM) | > 64 µg/mL and > 190 µM | 1 µg/mL (≈ 2.96 µM) | 1 µg/mL (≈ 2.96 µM) | 
0.25 µg/mL (≈ 1.46 µM) | Cc1ncc([N+](=O)[O-])n1CCO [Metronidazole] | 0.25 µg/mL (≈ 1.46 µM) | > 64 µg/mL | > 64 µg/mL and > 374 µM | > 64 µg/mL | ≤ 1 µg/mL | 2 µg/mL (≈ 11.7 µM) |  |  | > 64 µg/mL | > 64 µg/mL | MIC [12]: 0.25 µg/mL (≈ 1.46 µM); MIC [13]: 0.125 µg/mL (≈ 0.73 µM); MIC [16]: 0.125 µg/mL (≈ 0.73 µM); MIC [2]: 0.125 µg/mL (≈ 0.73 µM); MIC [17]: 0.25 µg/mL (≈ 1.46 µM); MIC [3]: 0.25 µg/mL (≈ 1.46 µM); treatment failure [18]: 22%; bioavailable (absorption from the intestinal tract) [19]: 100%
 | CC(C)NCC(O)COc1cccc2ccccc12 (stereo not shown) [Propranolol] |  |  |  |  |  |  |  |  |  |  | Notes (permeability class) (Caco-2 bilayers): High Permeability Control
 | CNC(=C[N+](=O)[O-])NCCSCc1ccc(CN(C)C)o1 [Ranitidine] |  |  |  |  |  |  |  |  |  |  | Notes (permeability class) (Caco-2 bilayers): Low Permeability Control
 | CN[C@H](CC(C)C)C(=O)N[C@H]1C(=O)N[C@@H](CC(N)=O)C(=O)N[C@H]2C(=O)N[C@H]3C(=O)N[C@H](C(=O)N[C@H](C(=O)O)c4cc(O)cc(O)c4-c4cc3ccc4O)[C@H](O)c3ccc(c(Cl)c3)Oc3cc2cc(c3O[C@@H]2O[C@H](CO)[C@@H](O)[C@H](O)[C@H]2O[C@H]2C[C@](C)(N)[C@H](O)[C@H](C)O2)Oc2ccc(cc2Cl)[C@H]1O [Vancomycin] | 1 µg/mL (≈ 0.69 µM) | ≤ 1 µg/mL and ≤ 0.7 µM | 2 µg/mL (≈ 1.38 µM) | 2 µg/mL (≈ 1.38 µM) | 64 µg/mL (≈ 44.2 µM) | 32 µg/mL (≈ 22.1 µM) | > 64 µg/mL | > 64 µg/mL | 32 µg/mL (≈ 22.1 µM) | > 64 µg/mL | MIC [1]: 1 µg/mL (≈ 0.69 µM); MIC [12]: 0.25 µg/mL (≈ 0.173 µM); MIC [13]: 1 µg/mL (≈ 0.69 µM); MIC [16]: 0.5 µg/mL (≈ 0.345 µM); MIC [2]: 0.5 µg/mL (≈ 0.345 µM); MIC [17]: 1 µg/mL (≈ 0.69 µM); MIC [3]: 1 µg/mL (≈ 0.69 µM); MIC (Lactobacillus strains): 1 µg/mL to 2 µg/mL and 0.7 µM to 1.4 µM; MIC (Bacteroides spp): 32 µg/mL to 64 µg/mL and 22.1 µM to 44.2 µM; treatment failure [18]: 14%; Frequency of mutation (C. difficile ATCC 43255 [15]; 15 × MIC and 20 × MIC): < 1.1× 10^−9; isolation of resistant mutants (C. difficile ATCC 43255 [15]; 15 × MIC and 20 × MIC): no resistant mutants were isolated; Frequency of mutation (C. difficile ATCC 43255 [15]; [20]): <1.1× 10^−9; Frequency of mutation (C. difficile ATCC 43255 [15]; [21]): <1.1× 10^−9
2 µg/mL (≈ 5.47 µM) | O=C(Nc1nnc(-c2ccccc2)o1)c1ccc(SC(F)(F)F)cc1 [compound 1, N-(5-Phenyl-1,3,4-oxadiazol-2-yl)-4-((trifluoromethyl)thio)benzamide] |  |  |  |  |  |  |  |  |  |  | 
4 µg/mL (≈ 10.4 µM) | O=C(Nc1nnc(-c2ccccc2F)o1)c1ccc(SC(F)(F)F)cc1 [compound 2, N-(5-(2-Fluorophenyl)-1,3,4-oxadiazol-2-yl)-4-((trifluoromethyl)thio)benzamide] |  |  |  |  |  |  |  |  |  |  | 
4 µg/mL (≈ 10 µM) | O=C(Nc1nnc(-c2ccccc2Cl)o1)c1ccc(SC(F)(F)F)cc1 [compound 3, N-(5-(2-Chlorophenyl)-1,3,4-oxadiazol-2-yl)-4-((trifluoromethyl)thio)benzamide] |  |  |  |  |  |  |  |  |  |  | 
